For one compound, EC50 results are on record in patent publication US8895580B2, “Quinolinone-pyrazolone M1 receptor positive allosteric modulators” (Merck Sharp & Dohme Corp., priority 2009, dated 2014).

The assay has as its target T1, acetylcholine muscarinic M1 receptor (CHOnfat/hM1 cells) (Homo sapiens, UniProt P11229).
T1 construct: expressed in transfected cells; host or cells: CHOnfat cells (CHOnfat/hM1; Geneticin-selected)
T1 sequence (P11229 1-460): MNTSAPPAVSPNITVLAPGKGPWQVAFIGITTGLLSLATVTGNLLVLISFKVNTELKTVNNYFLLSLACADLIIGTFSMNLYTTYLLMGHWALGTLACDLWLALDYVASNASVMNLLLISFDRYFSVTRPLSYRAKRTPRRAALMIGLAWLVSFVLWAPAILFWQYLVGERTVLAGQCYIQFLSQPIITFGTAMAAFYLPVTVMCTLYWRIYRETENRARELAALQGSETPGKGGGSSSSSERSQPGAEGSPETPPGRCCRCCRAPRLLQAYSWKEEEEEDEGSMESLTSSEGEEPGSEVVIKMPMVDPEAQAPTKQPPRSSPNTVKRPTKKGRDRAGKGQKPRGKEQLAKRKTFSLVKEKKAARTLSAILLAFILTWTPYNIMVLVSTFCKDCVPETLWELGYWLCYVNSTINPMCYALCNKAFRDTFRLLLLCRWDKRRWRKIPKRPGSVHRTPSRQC
Description: muscarinic M1 FLIPR intracellular calcium assay (positive allosteric modulation). It is filed as cell-based. The following applies: FLIPR Ca2+, 4 min preincubation, then EC20 acetylcholine (3 nM final), read-out: IP Value (inflection point). The method, then: The assay studies the effect of one or several concentrations of test compounds on basal or acetylcholine-stimulated Ca^2+ levels using FLIPR.
Compounds are prepared and subjected to a preincubation period of 4 min. Thereafter, a single EC20 concentration of acetylcholine is added to each well (3 nM final). The intracellular Ca^2+ level of each sample is measured and compared to an acetylcholine control to determine any modulatory activity.
Cells: CHOnfat/hM1, hM2, hM3 or hM4 cells are plated 24 hr before the assay at a density of 18,000 cells/well (100 μL) in a 384 well plate. CHOnfat/hM1 and CHOnfat/hM3 Growth Medium: 90% DMEM (Hi Glucose); 10% HI FBS; 2 mM L-glutamine; 0.1 mM NEAA; Pen-Strep; and 1 mg/ml Geneticin, are added. For M2Gqi5CHOnfat and M4Gqi5CHOnfat cells, an additional 600 ug/ml hygromycin is added.
Equipment: 384 well plate, 1204 addition plate; 96-well Whatman 2 ml Uniplate Incubator, 37° C., 5% CO2; Skatron EMBLA-384 Plate Washer; Multimek Pipetting System; Genesis Freedom 200 System; Mosquito System; Temo Nanoliter Pipetting System; and FLIPR^384 Fluorometric Imaging Plate Reader System are used.
Buffers. Assay Buffer: Hanks Balanced Salt Solution, with 20 mM Hepes, 2.5 mM Probenecid (Sigma P-8761) first dissolved in 1 N NaOH, 1% Bovine Serum Albumin (Sigma A-9647). Dye Loading Buffer: Assay Buffer plus 1% Fetal Bovine Serum and Fluo-4AM/Pluronic Acid Mixture. 2 mM Fluo-4AM ester stock in DMSO (Molecular Probes F-14202) Concentration of 2 μM in buffer for a final concentration of 1 μM in Assay. 20% Pluronic Acid Solution stock, with concentration of 0.04% in Buffer, 0.02% in Assay.
65 μL of 2 mM Fluo-4AM are mixed with 130 μL of 20% Pluronic Acid. The resulting solution and 650 μL FBS is added to the assay buffer for a total volume of 65 mL. Positive Controls: 4-Br-A23187: 10 mM in DMSO; final concentration 10 μM. Acetylcholine: 10 mM in water, working stock at both 20 μM and 30 μM in assay buffer, final concentration of 10 μM. This is used to check the maximum stimulation of the CHOK1/hM1 cells, 20 μM (2×) acetylcholine is added in the preincubation part of the assay, and the 30 μM (3×) stock is added in the second part. (EC20)Acetylcholine: 10 mM in water, working stock of 9 nM (3×), and final concentration in assay is 3 nM. This is used after the preincubation with test compounds. Addition of the EC20 Acetylcholine to each well with a test compound will ascertain any modulator activity. 24 wells contain 3 nM Acetylcholine alone as a control.
Determining Activity of Putative Compounds:
Screening Plate Compounds are titrated in 96-well plates (columns 2-11), 100% DMSO, started at a concentration of 15 mM (150× stock concentration), and 3-fold serial dilutions using Genesis Freedom200 System. Four 96-well plates are combined into a 384-well plate using Mosquito Nanoliter Pipetting System by transferring 1 μl of serial diluted compounds to each well, and 1 mM acetylcholine (100× stock concentration) were added as a control. Using Temo, 49 μl assay buffer is added to each well of the 384-well plate right before assay.
In a 96-well Whatman 2 ml Uniplate, 9 nM Acetylcholine (3×) is pipetted into wells corresponding to the screening compounds, and into control wells. The 30 μM acetylcholine control (3×) is added into control wells, and the 3× agonist plate is transferred into a 384 well plate.
Cells are washed three times with 100 μl, of buffer, leaving 30 μl of buffer in each well. Using Multimek, 30 μL of Dye Loading Buffer is added into each well and incubated at 37° C., 5% CO2 for up to one hr.
After 60 min, the cells are washed three times with 100 μl of buffer, leaving 30 μl, of buffer in each well. The cell plate, screening plate, and agonist addition plates are placed on the platform in the FLIPR and the door closed. A signal test to check background fluorescence and basal fluorescence signal is performed. Laser intensity is adjusted if necessary. […]

On to `CCN(CC)C(=O)Cn1nc2c3ccccc3n(Cc3ccc(-n4cccn4)cc3)cc-2c1=O` [Example 690, N,N-Diethyl-2-(3-oxo-5-{[4-(1H-pyrazol-1-yl)phenyl]methyl}-3,5-dihydro-2H-pyrazol[4,3-c]quinolin-2-yl)acetamide], for which the EC50 stood at 1250 nM.
